Laboratory results: patent US20230123334A1, “AMINO LIPID COMPOUND, PREPARATION METHOD THEREFOR, AND APPLICATION THEREOF” (SHENZHEN SHENXIN BIOTECHNOLOGY CO., LTD., priority 2020, published 2023)

Columns and labels:
HEK293 cells [1] = test: Preliminary screening as DNA vectors, GFP transfection of HEK293 cells; assay type: cell-based; conditions: HEK293 cells; lipid/DOPE liposome with 75 ng plasmid DNA (psin-EGFP-IRES-Puro); number of cells expressing GFP divided by total number of nuclei (Hoechst)
How it was run: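 HEK293 cells in DMEM/10% FBS transfected with 75 ng EGFP plasmid per well complexed with amino lipid/DOPE liposomes in pH 5.6 sodium acetate. Hoechst nuclear stain added 20-24 h post-transfection, then cells cultured another 20-24 h. Confocal imaging gives GFP-positive cells as % of total nuclei.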

HEK293 cells [2] = test: Preliminary screening as mRNA vectors, EGFP mRNA transfection of HEK293 cells; assay type: cell-based; conditions: HEK293 cells, 96-well plates, EGFP mRNA 50 ng per well; percentage of GFP fluorescent cells relative to total number of cells (Hoechst)
How it was run: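 HEK293 cells in DMEM plus 10% FBS transfected in 96-well format with 50 ng EGFP mRNA per well; Lipofectamine2000 served as positive control. Read-out is the percentage of GFP-fluorescent cells among total cells, counted by Hoechst nuclear stain.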

CCCCCCCCCNc1nc(NCCCCCCCCC)nc(NCCCN2CCN(C)CC2)n1 [Compound N9N9D9]
Absolute DNA transfection efficiency in HEK293 cells (HEK293 cells [1]): 0.0%
Absolute mRNA transfection efficiency in HEK293 cells (HEK293 cells [2]): 0.2%

CCCCCCCCCCCNc1nc(NCCCCCCCCC)nc(NCCN(C)C)n1 [Compound N9N11D1]
Absolute DNA transfection efficiency in HEK293 cells (HEK293 cells [1]): 0.0%
Absolute mRNA transfection efficiency in HEK293 cells (HEK293 cells [2]): 2.2%

CCCCCCCCCCCCN(CCCCCCCCCCCC)c1nc(NCCCCCCC)nc(NCCN(CC)CC)n1 [N7^2N12D7]
Absolute DNA transfection efficiency in HEK293 cells (HEK293 cells [1]): 0.6%
Absolute mRNA transfection efficiency in HEK293 cells (HEK293 cells [2]): 1.9%

CCCCCCCCCCCCNc1nc(NCCCCCCCC)nc(NCCN2CCN(C)CC2)n1 [Compound N8N12D5]
Absolute DNA transfection efficiency in HEK293 cells (HEK293 cells [1]): 0.6%
Absolute mRNA transfection efficiency in HEK293 cells (HEK293 cells [2]): 0.9%

CCCCCCCCCCCCCCCCCCSc1nc(NCCN(CC)CC)nc(SCCCCCCCCC)n1 [Compound S9S18D7]
Absolute DNA transfection efficiency in HEK293 cells (HEK293 cells [1]): 11.8%
Absolute mRNA transfection efficiency in HEK293 cells (HEK293 cells [2]): 1.9%

CCCCCCCCCCCCCCCCCCNc1nc(NCCCCCCCCC)nc(NCCN2CCCCC2)n1 [Compound N9N18D4]
Absolute DNA transfection efficiency in HEK293 cells (HEK293 cells [1]): 19.9%
Absolute mRNA transfection efficiency in HEK293 cells (HEK293 cells [2]): 1.3%

CCCCCCCCCCCNc1nc(NCCCCCCCCC)nc(NCCCN(C)C)n1 [Compound N9N11D6]
Absolute DNA transfection efficiency in HEK293 cells (HEK293 cells [1]): 0.0%
Absolute mRNA transfection efficiency in HEK293 cells (HEK293 cells [2]): 0.5%

CCCCCCCCCCCCN(CCCCCCCCCCCC)c1nc(NCCCCCCCCC)nc(NCC2CCN(C)CC2)n1 [N9^2N12D10]
Absolute DNA transfection efficiency in HEK293 cells (HEK293 cells [1]): 0.0%
Absolute mRNA transfection efficiency in HEK293 cells (HEK293 cells [2]): 2.9%

CCCCCCCCCCCCCCCCNc1nc(NCCCN2CCN(C)CC2)nc(N(CCCCCCCCCCCC)CCCCCCCCCCCC)n1 [N16^2N12D9]
Absolute DNA transfection efficiency in HEK293 cells (HEK293 cells [1]): 0.5%
Absolute mRNA transfection efficiency in HEK293 cells (HEK293 cells [2]): 0.0%

CCCCCCCCCCCCCCCCCCNc1nc(NCCCCCCC)nc(NCCN2CCOCC2)n1 [Compound N7N18D2]
Absolute DNA transfection efficiency in HEK293 cells (HEK293 cells [1]): 0.0%
Absolute mRNA transfection efficiency in HEK293 cells (HEK293 cells [2]): 0.0%

CCCCCCCCCCCCCCCNc1nc(NCCCCCCCCCCCCC)nc(NCCN2CCCC2)n1 [Compound N13N15D3]
Absolute DNA transfection efficiency in HEK293 cells (HEK293 cells [1]): 1.4%
Absolute mRNA transfection efficiency in HEK293 cells (HEK293 cells [2]): 4.7%

CCCCCCCCCCCCCCCNc1nc(NCCCCCCCCCCCCC)nc(NCCN(CC)CC)n1 [Compound N13N15D7]
Absolute DNA transfection efficiency in HEK293 cells (HEK293 cells [1]): 0.8%
Absolute mRNA transfection efficiency in HEK293 cells (HEK293 cells [2]): 3.7%

CCCCCCCCCCCCCCCCCCNc1nc(NCCCCCC)nc(NCCN(CC)CC)n1 [Compound N6N18D7]
Absolute DNA transfection efficiency in HEK293 cells (HEK293 cells [1]): 0.9%
Absolute mRNA transfection efficiency in HEK293 cells (HEK293 cells [2]): 0.3%

CCCCCCCCCCCCCCCCNc1nc(NCCCCCCCCCCCCCCCC)nc(NCCCN2CCN(C)CC2)n1 [Compound N16N16D9]
Absolute DNA transfection efficiency in HEK293 cells (HEK293 cells [1]): 1.9%
Absolute mRNA transfection efficiency in HEK293 cells (HEK293 cells [2]): 0.0%

CCCCCCCCCCCCSc1nc(NCC2CCN(C)CC2)nc(SCCCCCCCCCC)n1 [Compound S10S12D10]
Absolute DNA transfection efficiency in HEK293 cells (HEK293 cells [1]): 13.7%
Absolute mRNA transfection efficiency in HEK293 cells (HEK293 cells [2]): 91.0%

CCCCCCCCCCCCNc1nc(NCCCCCCCCC)nc(NCCN2CCN(C)CC2)n1 [Compound N9N12D5]
Absolute DNA transfection efficiency in HEK293 cells (HEK293 cells [1]): 0.0%
Absolute mRNA transfection efficiency in HEK293 cells (HEK293 cells [2]): 3.8%

CCCCCCCCCNc1nc(NCCCCCCCC)nc(NCCN2CCOCC2)n1 [Compound N8N9D2]
Absolute DNA transfection efficiency in HEK293 cells (HEK293 cells [1]): 0.0%
Absolute mRNA transfection efficiency in HEK293 cells (HEK293 cells [2]): 0.3%

CCCCCCCCCCCCN(CCCCCCCCCCCC)c1nc(NCCCN(C)C)nc(N(CCCCCCCCCCCC)CCCCCCCCCCCC)n1 [2N12^2N12D6]
Absolute DNA transfection efficiency in HEK293 cells (HEK293 cells [1]): 0.0%
Absolute mRNA transfection efficiency in HEK293 cells (HEK293 cells [2]): 0.2%

CCCCCCCCCCCCCCCCSc1nc(NCCN2CCCC2)nc(SCCCCCCCC)n1 [Compound S8S16D3]
Absolute DNA transfection efficiency in HEK293 cells (HEK293 cells [1]): 20.7%
Absolute mRNA transfection efficiency in HEK293 cells (HEK293 cells [2]): 37.3%

CCCCCCCCCCCCCCCCCCSc1nc(NCCCN2CCN(C)CC2)nc(SCCCCCCCCCCCCCCCCCC)n1 [Compound S18S18D9]
Absolute DNA transfection efficiency in HEK293 cells (HEK293 cells [1]): 0.9%
Absolute mRNA transfection efficiency in HEK293 cells (HEK293 cells [2]): 0.1%
